The text below walks through data of ChEMBL document CHEMBL3046891, “Potent antimalarial activity of newly synthesized substituted chalcone analogs in vitro” (Med Chem Res, 2009).

Values after ≈ are worked out from the molar mass of the structure shown.

This assay has as its system Plasmodium falciparum. Nature of the assay: Antimalarial activity against blood-stage Plasmodium falciparum 3D7 after 48 hr by Giemsa staining method. In kind it is functional, organism-based. To be noted: 3D7, 48 h.
For the compound `COc1cc(/C=C/C(=O)c2ccc(-n3ccnc3)cc2)cc(OC)c1OC`, inhibition was half-maximal at 2.48 µg/mL (≈ 6.81 µM) (IC50). Regarding `COc1ccc(/C=C/C(=O)c2ccc(N3CCOCC3)cc2)cc1`, half-maximal inhibition (IC50) required 7.9 µg/mL (≈ 24.4 µM). The same measure for `COc1cc(/C=C/C(=O)c2ccc(N3CCCC3)cc2)cc(OC)c1OC`: 13 µg/mL (≈ 35.4 µM); for `COc1cc(/C=C/C(=O)c2ccc(N3CCCC3)cc2)cc(OC)c1`: 8.43 µg/mL (≈ 25 µM); for `COc1ccc(/C=C/C(=O)c2ccc(N3CCCCC3)cc2)cc1OC`: 3.13 µg/mL (≈ 8.91 µM). As for `O=C(/C=C/c1cc2ccccc2nc1Cl)c1ccc(N2CCOCC2)cc1`, 17 µg/mL (≈ 45 µM) corresponded to half-maximal inhibition (IC50). The same measure for `COc1ccc(/C=C/C(=O)c2ccc(N3CCCC3)cc2)cc1`: 6.3 µg/mL (≈ 20.5 µM). The same measure for `COc1ccc(/C=C/C(=O)c2ccc(-n3cncn3)cc2)cc1`: 4.56 µg/mL (≈ 14.9 µM); for `COc1ccc(/C=C/C(=O)c2ccc(-n3cccc3)cc2)cc1`: 1.61 µg/mL (≈ 5.31 µM). `COc1cc(/C=C/C(=O)c2ccc(-n3cccc3)cc2)cc(OC)c1OC`: the IC50 (commonly the midpoint of a concentration-inhibition curve) amounted to 2.03 µg/mL (≈ 5.59 µM).

As to `COc1cc(/C=C/C(=O)c2ccc(N3CCNCC3)cc2)cc(OC)c1OC`, half-maximal inhibition (IC50) was put at 9 µg/mL (≈ 23.5 µM).
